In the assay the test system is Human RSV-A (“Long” strain). Nature of the assay: RSV in vitro cytoprotection assay (CPE, ATPlite) in HEp-2 cells. It counts as cell-based. To be noted: human respiratory syncytial virus, 96 h; HEp-2 cells, 4-day incubation, ATPlite readout; read-out: Human RSV-A (“Long” strain) EC50. The gist of the method: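 HEp-2 cells (8,000/well) given 2-fold serial compound dilutions in duplicate, then infected with sucrose-stabilised RSV-A Long stock. After 4 days, cell viability read by ATPlite luminescence, with a parallel uninfected plate for cytotoxicity. EC50 binned A<0.01 μM, B 0.01-0.05 μM, C>0.05 μM.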
On to `Cc1cnc(N2CC3(CCOCC3)C2)c(C(=O)Nc2ccc(C(=O)N3CCc4cc(C(=O)Nc5nccs5)sc4-c4ccc(F)cc43)cc2)c1` [Example 132], for which the half-maximal effective concentration (EC50) is less than 10 nM.

With `Cc1cnc(N2CC3(CCOCC3)C2)c(C(=O)Nc2ccc(C(=O)N3CCc4cc(C(=O)Nc5nnc(C)s5)sc4-c4ccc(F)cc43)cc2)c1` [Example 133], the EC50 lay in the range of 10 to 50 nM.

Take `Cc1cnc(N2CC3(CCOCC3)C2)c(C(=O)Nc2ccc(C(=O)N3CCc4cc(C(=O)Nc5ncc(C)o5)sc4-c4ccc(F)cc43)cc2)c1` [Example 134]: the EC50 is less than 10 nM.

As to `Cc1cnc(N2CC3(CCOCC3)C2)c(C(=O)Nc2ccc(C(=O)N3CCc4cc(C(=O)Nc5nc(C)co5)sc4-c4ccc(F)cc43)cc2)c1` [Example 135], the concentration giving a half-maximal response (EC50) was less than 10 nM.

`Cc1cc(C(=O)Nc2ccc(C(=O)N3CCc4cc(C(=O)Nc5c(F)cc(F)cc5Cl)sc4-c4ccc(F)cc43)cc2)c(N2CC3(CCOCC3)C2)nn1` [Example 136]: the half-maximal effective concentration (EC50) lay in the range of 10 to 50 nM.

Regarding `O=C(Nc1c(F)cccc1Cl)c1cc2c(s1)-c1ccc(F)cc1N(C(=O)c1ccc(NC(=O)c3cc4c(nc3N3CC5(CCOCC5)C3)CCOC4)cc1)CC2` [Example 137], the EC50 was less than 10 nM.

On to `O=C(Nc1ncccc1C(F)(F)F)c1cc2c(s1)-c1ccc(F)cc1N(C(=O)c1ccc(NC(=O)c3cc4c(nc3N3CC5(CCOCC5)C3)CCC4)cc1)CC2` [Example 139], for which the half-maximal effective concentration (EC50) was less than 10 nM.

`O=C(Nc1ncccc1Cl)c1cc2c(s1)-c1ccc(F)cc1N(C(=O)c1ccc(NC(=O)c3cc4c(nc3N3CC5(CCOCC5)C3)CCC4)cc1)CC2` [Example 140]: the EC50 is less than 10 nM.

As to `Cc1cnc(N2CC3(CCOCC3)C2)c(C(=O)Nc2ccc(C(=O)N3CCc4cc(-c5nnco5)sc4-c4ccc(F)cc43)cc2)c1` [Example 141], the concentration giving a half-maximal response (EC50) was less than 10 nM.

Consider `O=C(Nc1ccc(C(=O)N2CCc3cc(-c4nnco4)sc3-c3ccc(F)cc32)cc1)c1cccnc1N1CC2(CCOCC2)C1` [Example 142], for which the half-maximal effective concentration (EC50) was more than 50 nM.

`Cc1cnc(N2CC3(CCOCC3)C2)c(C(=O)Nc2ccc(C(=O)N3CCc4c(sc(-c5nnco5)c4F)-c4ccc(F)cc43)cc2)c1` [Example 143]: the EC50 is less than 10 nM.

With `O=C(Nc1c(F)cc(F)cc1Cl)c1cc2c(s1)-c1ccc(F)cc1N(C(=O)c1ccc(NC(=O)c3cc(C(F)F)cnc3N3CC4(CCOCC4)C3)cc1)CC2` [Example 144], the EC50 lay in the range of 10 to 50 nM.

On to `O=C(Nc1c(F)cccc1Cl)c1cc2c(s1)-c1ccc(F)cc1N(C(=O)c1ccc(NC(=O)c3cc(C(F)F)cnc3N3CC4(CCOCC4)C3)cc1)CC2` [Example 145], for which the EC50 was 10 to 50 nM.

Regarding `O=C(Nc1c(F)cccc1F)c1cc2c(s1)-c1ccc(F)cc1N(C(=O)c1ccc(NC(=O)c3cc(C(F)F)cnc3N3CC4(CCOCC4)C3)cc1)CC2` [Example 146], the EC50 is 10 to 50 nM.

In the case of `Cc1ccc(C(=O)Nc2ccc(C(=O)N3CCc4cc(-c5nc6ccccc6[nH]5)sc4-c4ccc(F)cc43)cc2)c(N2CC3(CCOCC3)C2)n1` [Example 147], the EC50 is less than 10 nM.

Regarding `Cc1ccc(C(=O)Nc2ccc(C(=O)N3CCc4cc(-c5nc6cccc(Cl)c6[nH]5)sc4-c4ccc(F)cc43)cc2)c(N2CC3(CCOCC3)C2)n1` [Example 148], the 50% effective concentration (EC50) lay in the range of 10 to 50 nM.

Regarding `Cc1ccc(C(=O)Nc2ccc(C(=O)N3CCc4cc(-c5nc6cccc(F)c6[nH]5)sc4-c4ccc(F)cc43)cc2)c(N2CC3(CCOCC3)C2)n1` [Example 149], the EC50 was less than 10 nM.

Consider `Cc1cnc(N2CC3(CCOCC3)C2)c(C(=O)Nc2ccc(C(=O)N3CCc4cc(-c5nnc(C)s5)sc4-c4ccc(F)cc43)cc2)c1` [Example 150], for which the concentration for a half-maximal effect (EC50) was less than 10 nM.

Consider `Cc1cnc(N2CC3(CCOCC3)C2)c(C(=O)Nc2ccc(C(=O)N3CCc4cc(-c5ncc(C)s5)sc4-c4ccc(F)cc43)cc2)c1` [Example 151], for which the concentration for a half-maximal effect (EC50) was less than 10 nM.

On to `Cc1cnc(N2CC3(CCOCC3)C2)c(C(=O)Nc2ccc(C(=O)N3CCc4cc(-c5nc(C)cs5)sc4-c4ccc(F)cc43)cc2)c1` [Example 152], for which the concentration for a half-maximal effect (EC50) fell in the range of 10 to 50 nM.

On to `Cc1cnc(N2CC3(CCOCC3)C2)c(C(=O)Nc2ccc(C(=O)N3CCc4cc(-c5nc(C)c(C)s5)sc4-c4ccc(F)cc43)cc2)c1` [Example 153], for which the EC50 was in the range of 10 to 50 nM.

For the molecule `Cc1cnc(N2CC3(CCOCC3)C2)c(C(=O)Nc2ccc(C(=O)N3CCc4cc(-c5nccs5)sc4-c4ccc(F)cc43)cc2)c1` [Example 154], the concentration for a half-maximal effect (EC50) was less than 10 nM.

For `Cc1cnc(N2CC3(CCOCC3)C2)c(C(=O)Nc2ccc(C(=O)N3CCc4cc(-c5ncns5)sc4-c4ccc(F)cc43)cc2)c1` [Example 155], the half-maximal effective concentration (EC50) was less than 10 nM.

As to `Cc1cnc(N2CC3(CCOCC3)C2)c(C(=O)Nc2ccc(C(=O)N3CCc4cc(-c5ncc(C)o5)sc4-c4ccc(F)cc43)cc2)c1` [Example 156], the EC50 lay within 10 to 50 nM.

For `Cc1cnc(N2CC3(CCOCC3)C2)c(C(=O)Nc2ccc(C(=O)N3CCc4cc(-c5nc(C)co5)sc4-c4ccc(F)cc43)cc2)c1` [Example 157], the EC50 lay within 10 to 50 nM.

Turning to `Cc1cnc(N2CC3(CCOCC3)C2)c(C(=O)Nc2ccc(C(=O)N3CCc4cc(-c5nc(C)c(C)[nH]5)sc4-c4ccc(F)cc43)cc2)c1` [Example 158], the EC50 is less than 10 nM.

`Cc1cnc(N2CC3(CCOCC3)C2)c(C(=O)Nc2ccc(C(=O)N3CCc4cc(-c5ccnn5C)sc4-c4ccc(F)cc43)cc2)c1` [Example 161]: the 50% effective concentration (EC50) was less than 10 nM.

Turning to `Cc1cnc(N2CC3(CCOCC3)C2)c(C(=O)Nc2ccc(C(=O)N3CCc4cc(-c5ccncc5F)sc4-c4ccc(F)cc43)cc2)c1` [Example 162], the EC50 is less than 10 nM.

Take `Cc1cnc(N2CC3(CCOCC3)C2)c(C(=O)Nc2ccc(C(=O)N3CCc4cc(-c5ccc(F)cn5)sc4-c4ccc(F)cc43)cc2)c1` [Example 163]: the EC50 is less than 10 nM.

Regarding `Cc1cnc(N2CC3(CCOCC3)C2)c(C(=O)Nc2ccc(C(=O)N3CCc4cc(-c5cccnc5F)sc4-c4ccc(F)cc43)cc2)c1` [Example 164], the half-maximal effective concentration (EC50) is less than 10 nM.

Turning to `Cc1cnc(N2CC3(CCOCC3)C2)c(C(=O)Nc2ccc(C(=O)N3CCc4cc(-c5ncccc5F)sc4-c4ccc(F)cc43)cc2)c1` [Example 165], the concentration giving a half-maximal response (EC50) was less than 10 nM.

Consider `Cc1cnc(N2CC3(CCOCC3)C2)c(C(=O)Nc2ccc(C(=O)N3CCc4cc(-c5ccncc5)sc4-c4ccc(F)cc43)cc2)c1` [Example 166], for which the EC50 was less than 10 nM.

On to `Cc1cnc(N2CC3(CCOCC3)C2)c(C(=O)Nc2ccc(C(=O)N3CCc4cc(-c5cccnc5)sc4-c4ccc(F)cc43)cc2)c1` [Example 167], for which the EC50 was less than 10 nM.

In the case of `Cc1cnc(N2CC3(CCOCC3)C2)c(C(=O)Nc2ccc(C(=O)N3CCc4cc(-c5ccccn5)sc4-c4ccc(F)cc43)cc2)c1` [Example 168], the 50% effective concentration (EC50) was less than 10 nM.

In the case of `Cc1cnc(N2CC3(CCOCC3)C2)c(C(=O)Nc2ccc(C(=O)N3CCc4cc(-c5ncco5)sc4-c4ccc(F)cc43)cc2)c1` [Example 169], the EC50 is less than 10 nM.

For `Cc1cnc(N2CC3(CCOCC3)C2)c(C(=O)Nc2ccc(C(=O)N3CCc4cc(-c5c[nH]nc5C5CC5)sc4-c4ccc(F)cc43)cc2)c1` [Example 170], the EC50 is less than 10 nM.

For the molecule `CCn1nccc1-c1cc2c(s1)-c1ccc(F)cc1N(C(=O)c1ccc(NC(=O)c3cc(C)cnc3N3CC4(CCOCC4)C3)cc1)CC2` [Example 171], the EC50 was less than 10 nM.

On to `Cc1cnc(N2CC3(CCOCC3)C2)c(C(=O)Nc2ccc(C(=O)N3CCc4cc(-c5cn(C)nc5N)sc4-c4ccc(F)cc43)cc2)c1` [Example 172], for which the EC50 was less than 10 nM.

The values above are taken from patent US11091501B2, “Heterocyclic compounds as RSV inhibitors” (Enanta Pharmaceuticals, Inc., priority 2017, dated 2021).
